Results published in patent US12156893B2, “Oral composition comprising lactic acid bacteria for regulating immune responses and methods related thereto” (The Regents of the University of California, priority 2016, dated 2024).

Columns and labels:
Format in all cases: cell-based, human
PL12 or Capan = test: NAC-induced cell death of well-differentiated pancreatic tumors; details: NAC added to well-differentiated PL12 or Capan
MP2 tumors = test: Chemotherapy-induced cell death of MP2 tumors; details: for Cell death of NK-differentiated MP2: MP2 differentiated with NK-supernatants
OSCSCs = test: Chemotherapy-induced cell death of NK-differentiated OSCSCs; details: OSCSCs differentiated with NK supernatants
NK cells = test: Production of cytokines, growth factors and chemokines by NK cells treated with bacterial strains (Bio-Plex 27-plex); parameters: unit not given here
Experimental: Different strains of probiotic bacteria were tested for their ability to induce IFN-g as well as a number of important cytokines, chemokines and growth factors (Table 1). To assess the levels of each strain used in the combination we used an activation index established in the lab for the NK cells which consisted of the use of a specific ratio of several important cytokines and chemokines that prevented auto-immunity while enhancing significant activation of NK cells under pathologic conditions. Therefore, the strains were selected to: 1) provide regulated activation of NK cells when no activation of NK cells is desired; 2) when activated by cytokines and/or cross-linking of the important receptors which occurs during functional activation of NK cells in cancer is to induce maximal activation of NK cells; and 3) provide diversity for gut microflora. These criteria allow us to use bacteria to regulate the gut mucosal immunity in such a way that we will only increase NK activation when needed during infections or malignancies. In other words when there is no need for function of NK cells bacteria will regulate NK function to not induce inflammation; however, during need which occurs under the pathological conditions NK cells are triggered to function at the maximal levels. Such coordinated regulation of NK cell function should be effective in halting unwanted inflammation while providing effective and maximal immunity during disease.
Written informed consents, approved by UCLA Institutional Review Board (IRB), were obtained from healthy blood donors, and all procedures were approved by the UCLA-IRB. Peripheral blood was separated using Ficoll-Hypaque centrifugation, after which the white, cloudy layer, containing peripheral blood mononuclear cells (PBMC), was harvested, washed and re-suspended in RPMI 1640 (Invitrogen by Life Technologies, CA) supplemented with 10% FBS and plated on plastic tissue culture dishes. After 1-2 hours of incubation, non-adherent, human peripheral blood lymphocytes (PBL) were collected. NK cells were negatively selected and isolated from PBLs using the EasySep® Human NK cell enrichment kit purchased from Stem Cell Technologies (Vancouver, BC, Canada). Isolated NK cells were stained with anti-CD16 antibody, to measure NK cell purity using flow cytometric analysis. The isolated NK cell population was greater than 90% purity. Purified NK cells were cultured in RPMI Medium 1640 supplemented with 10% FBS (Gemini Bio-Products, CA), 1% antibiotic antimycotic, 1% sodium pyruvate, and 1% MEM non-essential amino acids (Invitrogen, Life Technologies, CA).
Purified NK cells from healthy donors were left untreated or treated with IL-2 (1000 units/ml) or the combination of anti-CD16 mAb (3 μg/ml) and IL-2 (1000 units/ml) in the presence or absence of bacterial strains at 1:5 ratio (NK cell: bacteria) for 12-18 hours. Afterwards, the levels of cytokines, growth factors and chemokines were determined using Bio-Plex Pro Human Cytokine 27-plex Assay Kit.

[1] = Treatment NK (no activation), bacteria 1:5 NK cell:bacteria, 12-18 hours
[2] = Treatment NK + IL-2 (1000 units/ml), bacteria 1:5, 12-18 hours
[3] = Treatment NK + IL-2 + anti-CD16 mAb (3 μg/ml), bacteria 1:5, 12-18 hours

`CC(=O)N[C@@H](CS)C(=O)O` [NAC, N-acetylcysteine] was tested, and the Cell death (PL12 or Capan) was “greater levels of cell death”, the Cell death (MP2 tumors; NAC added to poorly-differentiated MP2) was “lower/slight effect on cell death” and the “Cell death of NK-differentiated OSCSCs” value (OSCSCs) was “significantly increased Paclitaxel-mediated cell death”.

For `CC(=O)O[C@H]1C(=O)[C@@]2(C)[C@H]([C@H](OC(=O)c3ccccc3)[C@]3(O)C[C@H](OC(=O)[C@H](O)[C@@H](NC(=O)c4ccccc4)c4ccccc4)C(C)=C1C3(C)C)[C@]1(OC(C)=O)CO[C@@H]1C[C@@H]2O` [Paclitaxel], the “Cell death of NK-differentiated MP2” value (MP2 tumors) was “significant susceptibility” and the “Cell death of NK-differentiated OSCSCs” value (OSCSCs) was “higher cell death”.

For Lactobacillus plantarum [L. plantarum], the Eotaxin (NK cells; [1]) was 36, the G-CSF (NK cells; [1]) was 236 and the GM-CSF (NK cells; [1]) was 122. For the same compound, the IFN-γ (NK cells; [1]) was 282, the IL-1B (NK cells; [1]) was 645 and the IL-1ra (NK cells; [1]) was 323. It also gave an IL-6 (NK cells; [1]) of 9500, an IL-8 (NK cells; [1]) of 17756 and an IL-10 (NK cells; [1]) of 85. It also gave an IL-12p70 (NK cells; [1]) of 130, an IL-13 (NK cells; [1]) of 8 and an IL-17 (NK cells; [1]) of 78. For the same compound, the IP-10 (NK cells; [1]) was 140, the MCP-1 (NK cells; [1]) was 958 and the RANTES (NK cells; [1]) was 22609. The TNF-α (NK cells; [1]) was 13887, the Eotaxin (NK cells; [2]) was 36 and the G-CSF (NK cells; [2]) was 129. It also gave a GM-CSF (NK cells; [2]) of 181, an IFN-γ (NK cells; [2]) of 5484 and an IL-1B (NK cells; [2]) of 466. The IL-1ra (NK cells; [2]) was 500, the IL-6 (NK cells; [2]) was 4212 and the IL-8 (NK cells; [2]) was 3415. The IL-10 (NK cells; [2]) was 43, the IL-12p70 (NK cells; [2]) was 184 and the IL-13 (NK cells; [2]) was 14. It also gave an IL-17 (NK cells; [2]) of 73, an IP-10 (NK cells; [2]) of 115 and an MCP-1 (NK cells; [2]) of 427. It also gave an RANTES (NK cells; [2]) of 1923, a TNF-α (NK cells; [2]) of 9223 and an Eotaxin (NK cells; [3]) of 40. It also gave a G-CSF (NK cells; [3]) of 125, a GM-CSF (NK cells; [3]) of 216 and an IFN-γ (NK cells; [3]) of 3087. The IL-1B (NK cells; [3]) was 714, the IL-1ra (NK cells; [3]) was 575 and the IL-6 (NK cells; [3]) was 3679. It also gave an IL-8 (NK cells; [3]) of 3247, an IL-10 (NK cells; [3]) of 37 and an IL-12p70 (NK cells; [3]) of 155. For the same compound, the IL-13 (NK cells; [3]) was 20, the IL-17 (NK cells; [3]) was 78 and the IP-10 (NK cells; [3]) was 92. For the same compound, the MCP-1 (NK cells; [3]) was 335, the RANTES (NK cells; [3]) was 4147 and the TNF-α (NK cells; [3]) was 7942.

“Lactobacillus bulgaricus [L. bulgaricus]” was tested, and the Eotaxin (NK cells; [1]) was 7, the G-CSF (NK cells; [1]) was 77 and the GM-CSF (NK cells; [1]) was 121. It also gave an IFN-γ (NK cells; [1]) of 144, an IL-1B (NK cells; [1]) of 293 and an IL-1ra (NK cells; [1]) of 112. The IL-6 (NK cells; [1]) was 2518, the IL-8 (NK cells; [1]) was 4501 and the IL-10 (NK cells; [1]) was 22. It also gave an IL-12p70 (NK cells; [1]) of 25, an IL-13 (NK cells; [1]) of 9 and an IL-17 (NK cells; [1]) of 49. For the same compound, the IP-10 (NK cells; [1]) was 88, the MCP-1 (NK cells; [1]) was 609 and the RANTES (NK cells; [1]) was 3804. For the same compound, the TNF-α (NK cells; [1]) was 868, the Eotaxin (NK cells; [2]) was 15 and the G-CSF (NK cells; [2]) was 69. For the same compound, the GM-CSF (NK cells; [2]) was 120, the IFN-γ (NK cells; [2]) was 381 and the IL-1B (NK cells; [2]) was 123. It also gave an IL-1ra (NK cells; [2]) of 449, an IL-6 (NK cells; [2]) of 837 and an IL-8 (NK cells; [2]) of 1997. For the same compound, the IL-10 (NK cells; [2]) was 12, the IL-12p70 (NK cells; [2]) was 21 and the IL-13 (NK cells; [2]) was 10. The IL-17 (NK cells; [2]) was 55, the IP-10 (NK cells; [2]) was 78 and the MCP-1 (NK cells; [2]) was 313. For the same compound, the RANTES (NK cells; [2]) was 4737, the TNF-α (NK cells; [2]) was 439 and the Eotaxin (NK cells; [3]) was 6. For the same compound, the G-CSF (NK cells; [3]) was 59, the GM-CSF (NK cells; [3]) was 136 and the IFN-γ (NK cells; [3]) was 306. The IL-1B (NK cells; [3]) was 141, the IL-1ra (NK cells; [3]) was 383 and the IL-6 (NK cells; [3]) was 685. For the same compound, the IL-8 (NK cells; [3]) was 1819, the IL-10 (NK cells; [3]) was 9 and the IL-12p70 (NK cells; [3]) was 5. For the same compound, the IL-13 (NK cells; [3]) was 8, the IL-17 (NK cells; [3]) was 50 and the IP-10 (NK cells; [3]) was 72. It also gave an MCP-1 (NK cells; [3]) of 305, an RANTES (NK cells; [3]) of 4062 and a TNF-α (NK cells; [3]) of 1064.

For `[NH2][Pt]([NH2])([Cl])[Cl]` [CDDP, Cisplatin], the “Cell death of NK-differentiated MP2” value (MP2 tumors) was “significant susceptibility” and the “Cell death of NK-differentiated OSCSCs” value (OSCSCs) was “significant susceptibility”.
